Marks after values point to notes of the source that are not given here. No end group written: not given here.
What was measured:
[1] = system: human red blood cells (RBCs); settings: concentrations up to 96 μM, 1 h, 37°C
Protocol: Hemolytic activity of TB and its analogs was tested against human red blood cells (RBCs) as previously described (Tavanti et al., [2011]). Briefly, peripheral blood obtained from healthy donors was centrifuged (1,000 × g for 10 min, 4°C) and washed three times with PBS (Euroclone, Milan, Italy). A suspension of RBCs (4%, v/v) was mixed with various concentrations of the peptides (from 12 to 96 μM) into a round-bottom polystyrene 96-well microplate (Corning Costar). RBCs suspended in PBS alone were used as negative control (0% hemolysis), while cells lysed with 0.1% Triton X-100 were taken as positive control (100% hemolysis). The microplate was incubated for 1 h at 37°C and then centrifuged at 1,000 × g for 20 min, 4°C. Supernatants were transferred to a new plate and the optical density at 450 nm (OD450) was measured by means of a microplate reader. The hemolytic activity was quantified according to the following formula: hemolysis (%) = [(OD peptide – OD negative control)/(OD positive control – OD negative control)] × 100.
The hemolytic activity was evaluated by the spectrophotometric determination of hemoglobin released from erythrocytes. PBS (0% hemolysis) and Triton X-100 (100% hemolysis) were used as controls. Hemolysis values ≤ 10% (dashed line) are considered to be non-hemolytic (Amin and Dannenfelser, [2006]). […]

S. aureus ATCC 33591 [2] = settings: ATCC 33591, 24 h, pH 7.4
P. aeruginosa ATCC 27853 [3] = format: cell-based, Pseudomonas aeruginosa; settings: pH 7.4
in vitro [4] = settings: human
[5] = system: K. pneumoniae ATCC BAA-1706; settings: ATCC BAA-1706, 24 h, pH 7.4
P. aeruginosa ATCC 27853 [6] = settings: ATCC 27853, 24 h, pH 7.4
[7] = system: preformed biofilms of S. aureus ATCC 33591; assay: Biofilm treatment assay on preformed (24-h old) biofilms, CFU counting, alone and with EDTA; format: cell-based, Staphylococcus aureus; settings: concentrations up to 120 μM, CFU counting
Protocol: The activity of TB, TB_L1FK, and TB_KKG6A against preformed (24-h old) biofilms of S. aureus and P. aeruginosa was also investigated. Briefly, biofilms were allowed to form for 24 h in flat-bottom 96-well microplates in the absence of antimicrobial compounds. Established biofilms were then washed three times with PBS in order to remove non-adherent cells and incubated in fresh BPM with different concentrations of the three peptides (from 15 to 120 μM). After 24 h of incubation, the viability of biofilm-associated cells was evaluated by CFU counting. For this purpose, biofilms were washed three times with PBS and bacterial cells were detached from the surface of the wells with a pipette tip, vigorously vortexed and plated in serial dilutions on TSA.
TB_L1FK and TB_KKG6A were combined with EDTA in order to enhance their activity against preformed biofilms of S. aureus and P. aeruginosa. […] Following incubation, the antibiofilm effect was evaluated in terms of number of biofilm-associated viable cells as previously described.
Figure 4 Activity of TB_L1FK and TB_KKG6A, used alone and in combination with EDTA, against preformed (24-h old) biofilms of S. aureus ATCC 33591 (A,B) and P. aeruginosa ATCC 27853 (C,D). The antibiofilm activity of the peptides, EDTA and the peptide-EDTA combinations was evaluated by CFU counting after 24 h of incubation. […]

[8] = system: S. epidermidis ATCC 35984; settings: ATCC 35984, 24 h, pH 7.4
S. aureus ATCC 33591 [9] = format: cell-based, Staphylococcus aureus; settings: pH 7.4
[10] = system: P. aeruginosa ATCC 27853 biofilm formation
in vitro [11] = settings: human; remark: listed apart in the source

Substance: LLPIVGNLLKSLL-NH2 [TB, Temporin 1Tb]
- Hemolytic effect [1]: no hemolytic effect
- MBC (S. aureus ATCC 33591 [2]): 12^a μM
- Time to bactericidal effect (P. aeruginosa ATCC 27853 [3]): 15 min
- viability (in vitro [4]): ~90%
- MBC [5]: 48 µM
- MBC (P. aeruginosa ATCC 27853 [6]): 48 µM
- Antibiofilm activity on preformed biofilms [7]: did not exert a considerable antibiofilm activity
- MBC [8]: 6 µM
- Time to bactericidal effect (reduction of at least 3 Log10 in viable bacteria) (S. aureus ATCC 33591 [9]): approximately 90 min
- Inhibitory activity on forming biofilms [10]: no inhibitory activity
- viability (in vitro [11]): ~90%
